# In US9346815B2, “5-chloro-2-difluoromethoxyphenyl pyrazolopyrimidine compounds, compositions and methods of use thereof” (Genentech, Inc., priority 2014, dated 2016):
# How the values were obtained:
# [1] = target: isolated recombinant JAK1 kinase domain (Homo sapiens (Human), UniProt P23458); test: JAK1 enzyme assay (Caliper LabChip, peptide phosphorylation); type: biochemical; settings: isolated recombinant JAK1 kinase domain, 25 μM ATP
# [2] = target: isolated recombinant JAK2 kinase domain (Homo sapiens (Human), UniProt O60674); test: JAK2 enzyme assay (Caliper LabChip, peptide phosphorylation); type: biochemical; settings: 25 μM ATP
# [3] = tested on: JAK1-dependent STAT6 phosphorylation downstream of IL-13 stimulation in TF-1 human erythroleukemia cells; test: JAK1 pathway assay in TF-1 cells (IL-13-pSTAT6, MSD); type: cell-based; settings: Homo sapiens, TF-1, TF-1 cells, read-out: IL13-pSTAT6 EC50_TF-1
# Summary of the method: (§1)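 Cells were preincubated with compounds (0.2% DMSO) for 30 min (TF-1, GM-CSF-starved overnight, serum-free OptiMEM, 300,000 cells/well) or 1 h (BEAS-2B, complete medium, 100,000 cells/well) at 37 °C.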
# [4] = tested on: JAK1-dependent STAT6 phosphorylation downstream of IL-13 stimulation in BEAS-2B human bronchial epithelial cells; test: JAK1 pathway assay in BEAS-2B cells (IL-13-pSTAT6, MSD); type: cell-based; settings: read-out: IL13-pSTAT6 EC50 (uM)_BEAS-2B
# Summary of the method: as §1
# Sequence of isolated recombinant JAK1 kinase domain (P23458 875-1153): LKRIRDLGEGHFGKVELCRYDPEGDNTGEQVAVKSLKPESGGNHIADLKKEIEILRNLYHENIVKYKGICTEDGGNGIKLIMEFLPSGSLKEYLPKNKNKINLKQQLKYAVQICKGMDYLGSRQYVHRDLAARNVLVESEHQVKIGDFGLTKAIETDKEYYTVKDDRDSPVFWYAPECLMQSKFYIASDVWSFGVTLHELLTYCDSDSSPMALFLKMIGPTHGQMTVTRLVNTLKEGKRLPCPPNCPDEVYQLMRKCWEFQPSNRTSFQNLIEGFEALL
# Sequence of isolated recombinant JAK2 kinase domain (O60674 849-1124): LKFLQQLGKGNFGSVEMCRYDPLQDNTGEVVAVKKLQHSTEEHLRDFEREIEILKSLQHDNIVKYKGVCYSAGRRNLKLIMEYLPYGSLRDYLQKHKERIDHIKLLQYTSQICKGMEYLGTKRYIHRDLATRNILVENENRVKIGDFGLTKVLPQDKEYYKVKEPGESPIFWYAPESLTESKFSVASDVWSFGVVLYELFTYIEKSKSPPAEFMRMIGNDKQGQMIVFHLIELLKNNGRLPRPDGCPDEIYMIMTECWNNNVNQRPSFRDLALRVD
Compound,Ki [1] [nM],Ki [2] [nM],EC50 [3] [nM],EC50 [4] [µM]
"CN(CCc1ccc(Cl)cc1)C1CCN(C(=O)Cn2cc(NC(=O)c3cnn4cccnc34)c(-c3cc(Cl)ccc3OC(F)F)n2)CC1 [Example 94, N-[3-[5-chloro-2-(difluoromethoxy)phenyl]-1-[2-[4-[2-(4-chlorophenyl)ethyl-methyl-amino]-1-piperidyl]-2-oxo-ethyl]pyrazol-4-yl]pyrazolo[1,5-a]pyrimidine-3-carboxamide]",1.2,2.07,42.4,0.0931
"NCCn1cc(NC(=O)c2c(N)nn3cccnc23)c(-c2cc(Cl)ccc2OC(F)F)n1 [Example 295, 2-amino-N-[1-(2-aminoethyl)-3-[5-chloro-2-(difluoromethoxy)phenyl]pyrazol-4-yl]pyrazolo[1,5-a]pyrimidine-3-carboxamide]",0.49,0.21,5.5,0.0345
"CNC(=O)CCCN1CCC(n2cc(NC(=O)c3c(N)nn4cccnc34)c(-c3cc(Cl)ccc3OC(F)F)n2)CC1 [Example 149, 2-amino-N-[3-[5-chloro-2-(difluoromethoxy)phenyl]-1-[1-[4-(methylamino)-4-oxo-butyl]-4-piperidyl]pyrazol-4-yl]pyrazolo[1,5-a]pyrimidine-3-carboxamide]",0.81,0.2,8.3,0.0198
"O=C(Cn1cc(NC(=O)c2cnn3cccnc23)c(-c2cc(Cl)ccc2OC(F)F)n1)NCC1(CO)CC1 [Example 291, N-[3-[5-chloro-2-(difluoromethoxy)phenyl]-1-[2-[[1-(hydroxy-methyl)cyclopropyl]methylamino]-2-oxo-ethyl]pyrazol-4-yl]pyrazolo[1,5-a]pyrimidine-3-carboxamide]",0.54,0.55,3.6,0.0317
"CC(=O)N1CCC(N2CCC(n3cc(NC(=O)c4c(N)nn5cccnc45)c(-c4cc(Cl)ccc4OC(F)F)n3)CC2)CC1 [Example 144, N-[1-[1-(1-acetyl-4-piperidyl)-4-piperidyl]-3-[5-chloro-2-(difluoromethoxy)phenyl]pyrazol-4-yl]-2-amino-pyrazolo[1,5-a]pyrimidine-3-carboxamide]",0.54,0.17,12.8,0.0213
"O=C(Nc1cn(CC(=O)N2C[C@H]3CN(CC4CCC4)C[C@H]3C2)nc1-c1cc(Cl)ccc1OC(F)F)c1cnn2cccnc12 [Example 40, N-[1-[2-[(3aR,6aS)-2-(cyclobutylmethyl)-1,3,3a,4,6,6a-hexahydropyrrolo[3,4-c]pyrrol-5-yl]-2-oxo-ethyl]-3-[5-chloro-2-(difluoromethoxy)phenyl]pyrazol-4-yl]pyrazolo[1,5-a]pyrimidine-3-carboxamide]",0.65,0.61,3.8,0.128
"O=C(Nc1cn(CC2(O)CCCC2)nc1-c1cc(Cl)ccc1OC(F)F)c1cnn2cccnc12 [Example 292, N-[3-[5-chloro-2-(difluoromethoxy)phenyl]-1-[(1-hydroxy-cyclopentyl)methyl]pyrazol-4-yl]pyrazolo[1,5-a]pyrimidine-3-carboxamide]",0.39,0.4,1.4,0.021
"CN(CCC#N)C1CCN(c2nc(-c3cc(Cl)ccc3OC(F)F)c(NC(=O)c3cnn4cccnc34)s2)CC1 [Example 189, Pyrazolo[1,5-a]pyrimidine-3-carboxylic acid (4-(5-chloro-2-difluoromethoxy-phenyl)-2-{4-[(2-cyano-ethyl)-methyl-amino]-piperidin-1-yl}-thiazol-5-yl)-amide]",2.59,1.61,5.3,0.02
CN(C(=O)Cn1cc(NC(=O)c2cnn3cccnc23)c(-c2cc(Cl)ccc2OC(F)F)n1)C1(CO)CC1 [Example 293],0.29,0.38,3,0.0081
"CN(CC1(C#N)CCCCC1)C1CCN(C(=O)C2CCN(c3nc(-c4cc(Cl)ccc4OC(F)F)c(NC(=O)c4cnn5cccnc45)s3)CC2)CC1 [Example 204, N-[4-[5-chloro-2-(difluoromethoxy)phenyl]-2-[4-[4-[(1-cyanocyclohexyl)methyl-methyl-amino]piperidine-1-carbonyl]-1-piperidyl]thiazol-5-yl]pyrazolo[1,5-a]pyrimidine-3-carboxamide]",2,1.41,7.9,0.172
"O=C(Nc1cn(CC(=O)N2CCN(CCO)CC2)nc1-c1cc(Cl)ccc1OC(F)F)c1cnn2cccnc12 [Example 228, N-[3-[5-chloro-2-(difluoromethoxy)phenyl]-1-[2-[4-(2-hydroxyethyl)piperazin-1-yl]-2-oxo-ethyl]pyrazol-4-yl]pyrazolo[1,5-a]pyrimidine-3-carboxamide]",0.47,0.89,11.1,0.0655
"CN1CCN(C(=O)Cn2cc(NC(=O)c3cnn4cccnc34)c(-c3cc(Cl)ccc3OC(F)F)n2)C[C@H]1CO [Example 235, N-[3-[5-chloro-2-(difluoromethoxy)phenyl]-1-[2-[(3S)-3-(hydroxymethyl)-4-methyl-piperazin-1-yl]-2-oxo-ethyl]pyrazol-4-yl]pyrazolo[1,5-a]pyrimidine-3-carboxamide]",0.58,1.08,21.3,0.114
"CN1CCN(C(=O)Cn2cc(NC(=O)c3cnn4cccnc34)c(-c3cc(Cl)ccc3OC(F)F)n2)CC1 [Example 227, Pyrazolo[1,5-a]pyrimidine-3-carboxylic acid {3-(5-chloro-2-difluoromethoxyphenyl)-1-[2-(4-methylpiperazin-1-yl)-2-oxoethyl]-1H-pyrazol-4-yl}amide]",0.55,0.93,3.6,0.0271
"CC(C)CN1CCC2(CCN(C(=O)Cn3cc(NC(=O)c4cnn5cccnc45)c(-c4cc(Cl)ccc4OC(F)F)n3)CC2)C1 [Example 225, N-[3-[5-chloro-2-(difluoromethoxy)phenyl]-1-[2-(2-isobutyl-2,8-diazaspiro[4.5]decan-8-yl)-2-oxo-ethyl]pyrazol-4-yl]pyrazolo[1,5-a]pyrimidine-3-carboxamide]",0.39,1.29,5,0.0423
"CN[C@H]1C[C@@H](n2cc(NC(=O)c3c(N)nn4cccnc34)c(-c3cc(Cl)ccc3OC(F)F)n2)C1 [Example 298, 2-amino-N-[3-[5-chloro-2-(difluoromethoxy)phenyl]-1-[3-(methylamino)cyclobutyl]pyrazol-4-yl]pyrazolo[1,5-a]pyrimidine-3-carboxamide]",0.52,0.18,4.4,0.0215
"Cc1ccc(OCCN(C)C2CCN(C(=O)Cn3cc(NC(=O)c4cnn5cccnc45)c(-c4cc(Cl)ccc4OC(F)F)n3)CC2)cc1 [Example 110, N-[3-[5-chloro-2-(difluoromethoxy)phenyl]-1-[2-[4-[methyl-[2-(4-methylphenoxy)ethyl]amino]-1-piperidyl]-2-oxo-ethyl]pyrazol-4-yl]pyrazolo[1,5-a]pyrimidine-3-carboxamide]",1.04,2.03,8.9,0.0875
"CN1CC[C@H]2[C@H](CCN2C(=O)Cn2cc(NC(=O)c3cnn4cccnc34)c(-c3cc(Cl)ccc3OC(F)F)n2)C1 [Example 48, N-[1-[2-[(3aR,7aS)-5-methyl-3,3a,4,6,7,7a-hexahydro-2H-pyrrolo[3,2-c]pyridin-1-yl]-2-oxo-ethyl]-3-[5-chloro-2-(difluoromethoxy)phenyl]pyrazol-4-yl]pyrazolo[1,5-a]pyrimidine-3-carboxamide]",0.94,1.85,13.7,0.0594
"O=C(Nc1cn(CC(=O)N2CCC(NC(c3ccccc3)C(F)(F)F)CC2)nc1-c1cc(Cl)ccc1OC(F)F)c1cnn2cccnc12 (stereo not drawn) [Example 132, N-[3-[5-chloro-2-(difluoromethoxy)phenyl]-1-[2-oxo-2-[4-[(2,2,2-trifluoro-1-phenyl-ethyl)amino]-1-piperidyl]ethyl]pyrazol-4-yl]pyrazolo[1,5-a]pyrimidine-3-carboxamide]",0.57,1.27,3.1,0.0973
"O=C(Nc1cn(CC(=O)N2CCC(CO)CC2)nc1-c1cc(Cl)ccc1OC(F)F)c1cnn2cccnc12 [Example 274, N-[3-[5-chloro-2-(difluoromethoxy)phenyl]-1-[2-[4-(hydroxymethyl)-1-piperidyl]-2-oxo-ethyl]pyrazol-4-yl]pyrazolo[1,5-a]pyrimidine-3-carboxamide]",0.34,0.91,3.2,0.0131
"CC1(CN(CCC(F)(F)F)C2CCN(C(=O)Cn3cc(NC(=O)c4cnn5cccnc45)c(-c4cc(Cl)ccc4OC(F)F)n3)CC2)COC1 [Example 117, N-[3-[5-chloro-2-(difluoromethoxy)phenyl]-1-[2-[4-[(3-methyloxetan-3-yl)methyl-(3,3,3-trifluoropropyl)amino]-1-piperidyl]-2-oxo-ethyl]pyrazol-4-yl]pyrazolo[1,5-a]pyrimidine-3-carboxamide]",0.51,1.13,8.6,0.0546
"CN(C)CC1CCN(c2nc(-c3cc(Cl)ccc3OC(F)F)c(NC(=O)c3cnn4cccnc34)s2)CC1 [Example 190, N-[4-[5-chloro-2-(difluoromethoxy)phenyl]-2-[4-[(dimethylamino)methyl]-1-piperidyl]thiazol-5-yl]pyrazolo[1,5-a]pyrimidine-3-carboxamide]",2.69,2.02,14.6,0.0098
